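Briefly, cells in 96-well plates were exposed to five compound concentrations for 48 h, and endpoints were estimated by linear interpolation. The concentration for 50% growth inhibition is given as GI50.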 Activity calls are given as the source filed them. No stated cut-off is given here; in the data, active = GI50 up to about 1.1 µM and inactive = higher.
Key:
Assay in all cases: DTP human tumour cell line panel, 48 h
786-0 = test system: 786-0
A498 = test system: A498
A549 = test system: A549
ACHN = test system: ACHN
BT-549 = test system: BT-549
CCRF-CEM = test system: CCRF-CEM
COLO 205 = test system: COLO 205
DU-145 = test system: DU-145
EKVX = test system: EKVX
HCC 2998 = test system: HCC 2998
HCT-116 = test system: HCT-116
HCT-15 = test system: HCT-15
HL-60 = test system: HL-60
HOP-62 = test system: HOP-62
HOP-92 = test system: HOP-92
HT-29 = test system: HT-29
Hs-578T = test system: Hs-578T
IGROV-1 = test system: IGROV-1
K562 = test system: K562
LOX IMVI = test system: LOX IMVI
M14 = test system: M14
MCF7 = test system: MCF7
MDA-MB-231 = test system: MDA-MB-231
MDA-MB-435 = test system: MDA-MB-435
MDA-N = test system: MDA-N
MOLT-4 = test system: MOLT-4
Malme-3M = test system: Malme-3M
NCI-H226 = test system: NCI-H226
NCI-H23 = test system: NCI-H23
NCI-H460 = test system: NCI-H460
NCI-H522 = test system: NCI-H522
NCI/ADR-RES = test system: NCI/ADR-RES
OVCAR-3 = test system: OVCAR-3
OVCAR-4 = test system: OVCAR-4
OVCAR-5 = test system: OVCAR-5
OVCAR-8 = test system: OVCAR-8
PC-3 = test system: PC-3
RPMI-8226 = test system: RPMI-8226
RXF 393 = test system: RXF 393
SF-268 = test system: SF-268
SF-295 = test system: SF-295
SF-539 = test system: SF-539
SK-MEL-28 = test system: SK-MEL-28
SK-MEL-2 = test system: SK-MEL-2
SK-MEL-5 = test system: SK-MEL-5
SK-OV-3 = test system: SK-OV-3
SN12C = test system: SN12C
SNB-19 = test system: SNB-19
SNB-75 = test system: SNB-75
SR = test system: SR
SW-620 = test system: SW-620
T47D = test system: T47D
TK-10 = test system: TK-10
U-251 = test system: U-251
UACC-257 = test system: UACC-257
UACC-62 = test system: UACC-62
UO-31 = test system: UO-31

## N/C(=N/O)c1cn(C2OC(CO)C(O)C2O)c2ncnc(NO)c12 (configuration not stated)
786-0
  GI50: 55.6 nM (active)
A498
  GI50: 425 nM (active)
A549
  GI50: 126 nM (active)
ACHN
  GI50: 18.9 nM (active)
BT-549
  GI50: 426 nM (active)
CCRF-CEM
  GI50: 16.5 nM (active)
COLO 205
  GI50: 77.1 nM (active)
DU-145
  GI50: 112 nM (active)
EKVX
  GI50: 422 nM (active)
HCC 2998
  GI50: 147 nM (active)
HCT-116
  GI50: 33.7 nM (active)
HCT-15
  GI50: 184 nM
HL-60
  GI50: 166 nM (active)
HOP-62
  GI50: 366 nM (active)
HOP-92
  GI50: 1030 nM (active)
HT-29
  GI50: 461 nM (active)
Hs-578T
  GI50: 1010 nM (active)
IGROV-1
  GI50: 451 nM (active)
K562
  GI50: 184 nM (active)
LOX IMVI
  GI50: 123 nM (active)
M14
  GI50: 126 nM (active)
MCF7
  GI50: 144 nM (active)
MDA-MB-231
  GI50: 34.4 nM (active)
MDA-MB-435
  GI50: 96.2 nM (active)
MDA-N
  GI50: 40.7 nM (active)
MOLT-4
  GI50: 87.1 nM (active)
Malme-3M
  GI50: 37.3 nM (active)
NCI-H226
  GI50: 340 nM (active)
NCI-H23
  GI50: 216 nM (active)
NCI-H460
  GI50: 112 nM (active)
NCI-H522
  GI50: 22.6 nM (active)
NCI/ADR-RES
  GI50: 203 nM (active)
OVCAR-3
  GI50: 255 nM (active)
OVCAR-4
  GI50: 265 nM (active)
OVCAR-5
  GI50: 656 nM (active)
OVCAR-8
  GI50: 242 nM (active)
PC-3
  GI50: 62.1 nM (active)
RPMI-8226
  GI50: 146 nM (active)
RXF 393
  GI50: 356 nM (active)
SF-268
  GI50: 164 nM (active)
SF-295
  GI50: 773 nM (active)
SF-539
  GI50: 117 nM (active)
SK-MEL-28
  GI50: 476 nM (active)
SK-MEL-2
  GI50: < 13.1 nM (active)
SK-MEL-5
  GI50: 151 nM (active)
SK-OV-3
  GI50: < 20 nM (active)
SN12C
  GI50: 59.3 nM (active)
SNB-19
  GI50: 514 nM (active)
SNB-75
  GI50: 222 nM (active)
SR
  GI50: 35.6 nM (active)
SW-620
  GI50: 143 nM (active)
T47D
  GI50: 37 nM (active)
TK-10
  GI50: 86.5 nM (active)
U-251
  GI50: 226 nM (active)
UACC-257
  GI50: 224 nM (active)
UACC-62
  GI50: 362 nM (active)
UO-31
  GI50: 84 nM (active)

From ChEMBL document CHEMBL1201862, “PubChem BioAssay data set” (2004)
